Assay results published in US20120022129A1, “Targeting of Histone Deacetylase 2, Protein Kinase CK2, and Nuclear Factor NRF2 For Treatment of Inflammatory Diseases” (priority 2008, published 2012).
Where a SMILES comes first, the peptide text is derived from it. [ ]: non-standard residue; d: D form. Nle = CCCC[C@H](N)C(=O)O

What was measured:
HDAC2 [1] = assay: Ubiquitination of immunoprecipitated HDAC2 in MonoMac6 cells; assay type: cell-based, human
Protocol: FIG. 4: CSE-mediated degradation of HDAC2 is ubiquitin-proteasome dependent in MonoMac6 cells. […] Immunoprecipitated HDAC2 was assayed for bound ubiquitin using specific ubiquitin anti-sera. […] (D) The relative density of ubiquitin expression in MonoMac6 cells after proteasome inhibition of CSE-induced HDAC2 degradation normalized to immunoprecipitated HDAC2.
(§1) Cell lysate controls were used.
(§2) To further confirm this hypothesis, it was determined if exposure to okadaic acid would induce ubiquitination and degradation of HDAC2. […] Immunoprecipitated HDAC2 was then assayed for the presence of ubiquitinated residues using specific ubiquitin anti-sera by western blot. […] To further confirm the hypothesis, MonoMac6 cells were treated with okadaic acid (1 μM) for 0.5 h, cells were fixed in 4% paraformaldehyde and immunostained with anti-HDAC2 antibodies to determine HDAC2 localization.

HDAC2 [2] = assay: Phosphorylation of immunoprecipitated HDAC2 in MonoMac6 cells; conditions: okadaic acid 1 μM, 0.5 and 1 h
Protocol: MonoMac6 cells were washed with Ca^2+/Mg^2+ free PBS and seeded at a density of 5.0×10^6 cells in 100 mm culture plates in a total volume of 7 ml RPMI-1640 containing 0.5% FBS. Cells were treated with CSE (2.5%) or Okadaic acid (40 nM and 1 μM) (Alexis Biochemicals, San Diego, Calif.). For treatments with protein casein kinase CK2 inhibitor, 4,5,6,7-tetrabromobenzotriazole (TBB), cells were pretreated with 20 μM TBB (Sigma, St. Louis, Mo.) for 1 or 2 h, cells were then washed with sterile PBS before treatment with CSE. […] Cells were treated with CSE (2.5%), washed in ice-cold sterile Ca^2+/Mg^2+ free PBS and lysed in RIPA buffer (50 mM Tris HCl pH 7.4, 150 mM NaCl, 0.25 mM EDTA, 5 mM NaF, 0.1% sodium deoxycholate, 1% Triton X-100); cell extracts and cell culture media were stored at −80° C. until analyzed.
Cell lysate (200 μg protein) was incubated for overnight with anti-HDAC2 (2 μg) at 4° C., then immunoprecipitated with Protein G-agarose beads for 1 h with constant agitation. Beads were washed at least four times with RIPA buffer, boiled for 10 minutes in 35 μl 2× sample buffer and resolved on a 7.5% SDS-polyacrylamide gel. Cell lysate controls were used. Blots were probed with p-serine (1:1000) and p-threonine (1:1000) (Cell Signaling, Boston, Mass.) monoclonal antibodies for studies on the post-translational modification of HDAC2.

MonoMac6 cells = assay type: cell-based, human
Protocol: In this study, it was determined the time-dependent effect of CSE on class I HDAC levels MonoMac6 cells were exposed to CSE (2.5%) for 0.5, 1, 2, 4 and 6 h. […] To determine whether class 1 HDAC degradation was due to decreased CSE-induced cell viability, the levels of lactate dehydrogenase (LDH) secreted into conditioned cell media was measured immediately after harvest.

CK2α = CK2α phosphorylation in H292 cells; assay type: cell-based, human; conditions: okadaic acid 100 nM and 1 μM, 0.5 and 1 h
Protocol: FIG. 15: CK2α Is Phosphorylated In Response to CSE. […] 80 μg whole cell lysates were then treated with 400 U of λ-phosphatase or buffer alone for 1 h at 30° C. The reaction was stopped by adding equal volume of 2× sample buffer and relative CK2α expression determined by western blotting. D) H292 cells were treated with 100 nM and 1 μM okadaic acid for 0.5 and 1 h. Relative CK2α expression was determined by western blotting using 20 μg whole cell lysates.

HDAC2 [3] = assay: HDAC2 immunostaining (localization) in MonoMac6 cells; assay type: cell-based, human; conditions: okadaic acid 1 μM, 0.5 h
Protocol: (B) Relative density of HDAC2 levels in human macrophage cells (MonoMac6 cells) at various time points of exposure to CSE.
To determine if CSE induced significant HDAC2 nucleo-cyloplasmic shuttling, MonoMac6 cells were treated with CSE (2.5%) for 4 and 6 h, cells were fixed in 4% paraformaldehyde and immunostained with anti-HDAC2 antibodies to determine HDAC2 localization. […] To determine whether shuttling occurred at earlier time points subsequent to degradation of HDAC2, MonoMac6 cells were exposed to CSE (2.5%) for 0.5 h and 1 h (data not shown).
as §2

A549 epithelial cells = assay: Histone acetylation:deacetylation in A549 epithelial cells; assay type: cell-based
From the text: The effect of cigarette smoke extract/condensate (CSC/CSE) and oxidative stress on histone acetylation:deacetylation and pro-inflammatory gene transcription in A549 epithelial cells has been investigated. […] CSE-mediated decrease in HDAC2 level was associated with posttranslational modifications by 4-hydroxy-2-nonenal and nitric oxide radicals generated by cigarette smoke exposure.

HDAC2 [4] = assay: Serine phosphorylation of immunoprecipitated HDAC2 in H292 cells; assay type: cell-based, human
Protocol: FIG. 6: CSE induced CK2-dependent HDAC2 phosphorylation in bronchial epithelial and small airway epithelial cells. [A (i)] H292 cells were treated with CSE (2.5%) for 0.5, 1, 2 and 4 h. Immunoprecipitated HDAC2 was analyzed for phosphorylation of serine residues using specific phospho-serine antibodies by SDS polyacrylamide gel. CSE induced significant cyclical phosphorylation of HDAC2 on serine residues at 0.5, 1 and 4 h. [A (ii)] Relative density of phosphor-serine expression normalized to immunoprecipitated HDAC2. [B (i)] […] Immunoprecipitated HDAC2 from whole cell lysates was probed for phosphorylation of serine residues, CSE induced a dose-dependent increase in HDAC2 serine phosphorylation. [B (ii)] Relative density of phospho-serine expression normalized to immunoprecipitated HDAC2. (C) H292 cells were treated with or without specific CK2 inhibitor, TBB. for 1 h, cells were washed with sterile 1×PBS and then treated with freshly prepared CSE (2.5%) for 0.5 h, Immunoprecipitated HDAC2 was assayed for phosphorylation on serine residues. […] (D) Relative density of phosphor-serine expression normalized to immunoprecipitated HDAC2.
FIG. 14: Loss of Serine Sites S^394, S^422, S^424 Abrogates Cigarette Smoke Extract (CSE)-Induced Phosphatase-Independent HDAC2 Phosphorylation. A) Bronchial epithelial H292 cells were transfected with plasmid vector or flag-tagged WT HDAC2 (1-488) for 24 h using lipofectamine 2000 and then treated with or without 2.5% CSE for 0.5 h or B) 50 μM. acrolein for 1 h. Flag-tagged proteins were immunoprecipitated overnight and serine phosphorylation detected by western blots using phospho-serine antibodies. C) Flag-tagged WT HDAC2 was immunoprecipitated from whole cell lysates of H292 cells treated with 2.5% CSE for 0.5 h. Immunoprecipates were then washed and treated with 400 U of λ-phosphatase or buffer alone for 1 h at 30° C. Phosphorylation of serine sites were detected by western blots using anti-serine antibodies. D) H292 cells were transfected with plasmid vector, flag-tagged WT HDAC2 (1-488) or S394A, S394/411/422/424A and 1-400 aa HDAC2 mutants for 24 h with lipofectamine 2000. Cells were then treated with 2.5% CSE for 0.5 h. Serine phosphorylation of immunoprecipitated flag proteins was determined by western blot. E) Phosphatase activity was determined using non-radioactive assay system (Promega). H292 cells were treated with or without 2.5% CSE for 0.5, 2 and 6 h with serine/threonine […] (okadaic acid) used as a positive control. 5 μg protein was incubated with PP2A specific-peptide substrate RRA(pT)VA and reaction buffer for 15 minutes in a 96-well plate. Molybdate dye/additive mixture was added to stop the reaction and color allowed to develop for 15 minutes. Optical density of samples was determined using a microplate reader with a 630 nm filter.
FIG. 18: Protein Kinase CK2 Inhibitors Blocks CSE-Induced HDAC2 Phosphorylation. A) Bronchial epithelial H292 cells transfected with a flag-tagged WT HDAC2 plasmid were treated with 2.5% CSE for 0.5 h. […] B) Relative density of phospho-serine expression normalized to immunoprecipitated HDAC2. Data expressed as mean±SEM (n=3). *** P<0.001, ### P<0.001 significant compared to control treatments.
as §1

[5] = system: LPS-induced lung inflammation; assay: LPS-induced lung inflammation in WT mice; assay type: in vivo, mouse
Protocol: LPS exposure studies in mice were performed as described previously. Briefly, age-matched WT, Nrf2−/− and HDAC2−/− were exposed to aerosolized Escherichia coli LPS (1 mg/ml) for 8 minutes. Aerosolized saline-exposed mice were used as controls, and animals were sacrificed at 24 h post last exposure.
Corticosteroid treatment.
Bronchoalveolar lavage. Mice were anaesthetized by pentobarbital (Abbott Laboratories, Abbott Park, Ill.) intraperitoneal injection (100 mg/kg body weight) before sacrifice. Lungs were then removed and lavaged three times with 0.6 ml of 0.9% sodium chloride with cannula inserted into the trachea. Total lavage fluid for each mouse was combined and then centrifuged. Supernatants were frozen at −80° C. until required for further analysis and cell pellets resuspended in 1 ml of saline, and total number of cells determined using a haemocytometer. Differential counts (minimum 500 per slide) were determined using Diff-Quik (Dade Behring, Newark, Del.)-stained cytospin slides.
Cytokine Analysis. Monocyte chemotactic protein 1 (MCP-1) levels were measured from mouse lung soluble protein by enzyme-linked immunosorbent assay (ELISA) with the duo-antibody kit (R & D Systems). Results were normalized to protein concentration per sample.

[6] = system: LPS-induced lung inflammation; assay: LPS-induced lung inflammation in HDAC2−/− mice; assay type: in vivo, mouse
From the text: Mice. The Nrf2 knockout (KO) mouse strain (Nrf2−/− on C57BL/6J background) used in this study is described earlier and was generously supplied by Prof. Masayuki Yamamoto, University of Tsukuba, Japan via the RIKEN BioResource Center, Tsukuba, Japan. HDAC2 mutant (HDAC2−/− on C57BL/6J background) mice were kindly provided by Dr. J. A. Epstein (University of Pennsylvania School of Medicine, Philadelphia, Pa.). […] Wild-type (WT) C57BL/6J mice were purchased from Jackson laboratories (Bar Harbor, Me.). All animal protocols for this study were approved by the University Committee on Animal Research of the University of Rochester.
LPS exposure studies in mice were performed as described previously. Briefly, age-matched WT, Nrf2−/− and HDAC2−/− were exposed to aerosolized Escherichia coli LPS (1 mg/ml) for 8 minutes. […]
Bronchoalveolar lavage. […] Supernatants were frozen at −80° C. until required for further analysis and cell pellets resuspended in 1 ml of saline, and total number of cells determined using a haemocytometer. Differential counts (minimum 500 per slide) were determined using Diff-Quik (Dade Behring, Newark, Del.)-stained cytospin slides.
Cytokine Analysis. Monocyte chemotactic protein 1 (MCP-1) levels were measured from mouse lung soluble protein by enzyme-linked immunosorbent assay (ELISA) with the duo-antibody kit (R & D Systems). […]

HDAC2 [7] = assay: HDAC2 levels by western blot in MonoMac6 cells; conditions: then CSE 2.5% 6 h
Protocol: The human monocyte-macrophage cell line (MonoMac6) was established from the peripheral blood of a subject with monoblastic leukemia (21). […]
MonoMac6 cells were washed with Ca^2+/Mg^2+ free PBS and seeded at a density of 5.0×10^6 cells in 100 mm culture plates in a total volume of 7 ml RPMI-1640 containing 0.5% FBS. […] Cells were treated with CSE (2.5%), washed in ice-cold sterile Ca^2+/Mg^2+ free PBS and lysed in RIPA buffer (50 mM Tris HCl pH 7.4, 150 mM NaCl, 0.25 mM EDTA, 5 mM NaF, 0.1% sodium deoxycholate, 1% Triton X-100); cell extracts and cell culture media were stored at −80° C. until analyzed.
Cells were lysed in 100 μl RIPA buffer supplemented with protease inhibitor cocktail (leupeptin, aprotinin, pepstatin and PMSF) and stored at −80° C. […] After extensive washing, primary antibodies were detected with secondary antibodies linked to horseradish peroxidase (Dako, Carpinteria, Calif.) and bound complex detected with enhanced chemiluminescence (PerkinElmer, Waltham, Mass.).

HDAC2 [8] = assay: Co-immunoprecipitation of flag-tagged HDAC2 with binding partners in H292 cells; assay type: cell-based, human; conditions: H292, flag-tagged WT HDAC2; TBB 40 μM 2 h and 90 μM 0.5 h, then CSE 2.5% 0.5 h
Protocol: FIG. 16: HDAC2 serine phosphorylation is associated with increased interaction with catalytic subunits of protein kinase CK2 in response to CSE. A) Bronchial epithelial H292 cells transfected with either a control vector (control V) or flag-tagged WT HDAC2 were treated with 2.5% CSE for 0.5 h. […] C) Bronchial epithelial H292 cells transfected with flag-tagged WT HDAC2 were treated with either 2.5% CSE for 0.5 h, 25 or 50 μM Acrolein for 1 h and 200 μM H202 for 0.5 and 2 h respectively.
A) H292 cells cultured on 8-well chamber slides were treated with 2.5% CSE for 0.5 h or 50 μM Acrolein for 1 h, washed and fixed with 4% PFA. Slides were incubated with HDAC2 and α-tubulin antibodies overnight at […]. Slides were mounted with antifade mounting solution and images analysed by an Olympus inverted microscope. B) H292 cells were transfected with plasmid vector (Ctrl V) or flag-tagged WT HDAC2 (1-488) for 24 h with lipofectamine 2000. Cells were treated with 2.5% CSE for 0.5 h and flag proteins immunoprecipitated using M2 anti-flag antibodies overnight at 4° C. HDAC1 and C) p53 interaction were determined by western blot. D) H292 cells were transfected with plasmid vector (Ctrl V), flag-tagged WT HDAC2 (1-488) or S^394/^411/^422/^424A and 1-400 amino acid HDAC2 mutants for 24 h with lipofectamine 2000. Cells were then exposed to 2.5% CSE for 0.5 h. Levels of HDAC2 interaction with HDAC1 were determined by western blotting using specific antibodies. E) H292 cells were transfected with flag-tagged WT HDAC2 (1-488) for 24 h with lipofectamine 2000. […] Levels of phospho-serine and HDAC2 interaction with SAP30, RbAp46/48, MBD3 and p65 were determined by western blotting using specific antibodies respectively. […] Levels of HDAC1 and p65 binding to immunoprecipitated flag-tagged HDAC2 was determined by western blotting. […] Deacetylase activity of immunoprecipitated HDAC2 was determined using a specific HDAC2 deacetylase activity kit. Data expressed as mean±SEM (n=3). *** P<0.001 significant compared to control treatments.

## C=C1[C@@H](O)[C@@H]2O[C@]3(CC[C@H](/C=C/[C@@H](C)[C@@H]4CC(C)=C[C@@]5(O[C@H](C[C@@](C)(O)C(=O)O)CC[C@H]5O)O4)O3)CC[C@H]2O[C@@H]1[C@@H](O)C[C@H](C)[C@H]1O[C@@]2(CCCCO2)CC[C@H]1C [okadaic acid]
HDAC2 [1]; okadaic acid 40 nM, 24 h
  ubiquitination of HDAC2: significantly induced the ubiquitination of HDAC2
HDAC2 [2]
  phosphorylation of HDAC2 on serine residues: significantly induced the phosphorylation of HDAC2 on serine residues
MonoMac6 cells; okadaic acid 40 nM, 24 h
  toxicity to cells (trypan blue viability, morphology): not toxic to the cells
MonoMac6 cells; okadaic acid 1 μM, beyond 1 h
  cell death: induced cell death
CK2α
  CK2α phosphorylation: induced CK2α phosphorylation
HDAC2 [3]
  nuclear HDAC2 (immunostaining): significantly induced the loss of nuclear HDAC2
  nucleo-cytoplasmic shuttling of HDAC2: no nucleo-cytoplasmic shuttling of HDAC2 was observed

## OO [H2O2, hydrogen peroxide]
A549 epithelial cells; H2O2
  histone deacetylase (HDAC) activity and HDAC2 protein levels: inhibited
A549 epithelial cells; hydrogen peroxide 100 μM
  histone acetylation (with histone acetyltransferase activity): caused an increase in histone acetylation
HDAC2 [4]; H292, flag-tagged WT HDAC2, H2O2 200 μM, 0.5 and 2 h
  HDAC2 phosphorylation: inability

## CCCC1O[C@@H]2C[C@H]3[C@@H]4CCC5=CC(=O)C=C[C@]5(C)[C@H]4[C@@H](O)C[C@]3(C)[C@]2(C(=O)CO)O1 (stereo partly drawn) [budesonide]
[5]; budesonide 3 mg/kg pretreatment
  attenuation of lung neutrophil influx following LPS exposure: ~50%
[5]; budesonide, LPS exposure
  efficacy in decreasing MCP-1 release: 49.4%
[6]; budesonide 3 mg/kg pretreatment, LPS
  neutrophil counts in BALF: no effect
[6]; budesonide, LPS exposure
  efficacy in decreasing MCP-1 release: 26.4%

## Brc1c(Br)c(Br)c2[nH]nnc2c1Br [TBB]
HDAC2 [4]; H292, flag-tagged WT HDAC2, TBB 50 μM pre-treated 2 h, then CSE 2.5% 0.5 h
  CSE-induced HDAC2 phosphorylation: completely inhibiting CSE-induced HDAC2 phosphorylation
HDAC2 [4]; H292, TBB 20 μM pretreated 1 h, then CSE 0.5 h
  CSE-induced HDAC2 phosphorylation: completely reversed CSE-induced HDAC2 phosphorylation
HDAC2 [4]; H292, TBB 25 μM pre-treated, then CSE
  CSE-induced HDAC2 phosphorylation: inhibit HDAC2 phosphorylation but not as efficiently
HDAC2 [7]; TBB 20 μM pre-treated 2 h
  CSE-induced HDAC2 degradation: significantly attenuated HDAC2 degradation
HDAC2 [8]
  HDAC2 interaction with HDAC1 and p65: blocked HDAC2 interaction with both HDAC1 and p65

## CCCC[C@@H](C=O)NC(=O)[C@H](CC(C)C)NC(=O)[C@H](CC(C)C)NC(C)=O [ALLN, N-Acetyl-Leu-Leu-Nle-CHO] (Ac-Leu-Leu-[Nle]-aldehyde)
HDAC2 [1]; ALLN 1 μM pre-treatment, CSE 2.5% 6 h
  CSE-induced HDAC2 ubiquitination: further enhanced
HDAC2 [7]; ALLN 1 μM and 5 μM pretreated 2 h
  CSE-induced HDAC2 degradation: dose-dependently inhibited HDAC2 degradation
